Tests used:
parvalbumin mRNA = assay: Parvalbumin mRNA in situ hybridisation in chronic PCP model; format: in vivo, rat; settings: chronic PCP treatment, alone or with clozapine or haloperidol
Description: In order to validate further this chronic PCP model the effect of this treatment paradigm on parvalbumin mRNA expression was investigated.
In situ hybridisation: a 45mer oligonucleotide probe was designed against bases 223-267 of the rat parvalbumin gene (GenBank accession number A819345). In situ hybridisation was carried out according to the method of Wisden and Morris (1994).

CIRL1 mRNA = assay: Semi-quantitative RT-PCR, prefrontal cortex, chronic PCP and antipsychotic treatment; format: in vivo, rat; settings: chronic PCP treatment
Description: FIG. 14 illustrates the level of CIRL1 mRNA present in the prefrontal cortex of rat brain following chronic PCP and antipsychotic treatment (n=12 for all groups apart from veh-veh where n=11). […] and […] (SEQ ID NOS: 25-26) were the primer sequences used to amplify this product.
RT-PCR for specific isoforms of CIRL was then conducted in the prefrontal cortex.
1 ml of lysis buffer (Qiagen), including 1% β-mercaptoethanol, was added to approximately 50-100 mg of brain tissue. Tissue samples were homogenised using a ribolyser (Hybaid) with 3 bursts at 6.5 g lasting 20 seconds each. Samples were then spun at room temperature in a microfuge for 3 minutes. The supernatant was removed and re-spun for a further 3 minutes. The supernatant was decanted to a fresh tube to which an equal volume of 70% ethanol was added. The remaining RNA isolation procedure was carried out according to the manufacturer's protocol (Qiagen).
Synthesis of cDNA was carried out according to manufacturers protocols (Life Technologies). Briefly 3-5μg of total RNA was reverse transcribed using oligo dT priming. After cDNA synthesis, samples were aliquoted and stored at −70° C. […]
Alterations in expression levels were determined by semi-quantitative PCR. […] Samples were removed over 4 consecutive cycles, however, the first cycle to be removed sometimes varied depending on when logarithmic amplification was detected. […]

**Q.** What does the source list for `c1ccc(C2(N3CCCCC3)CCCCC2)cc1` [PCP, phencyclidine]?
**A.** parvalbumin mRNA, prelimbic region of the prefrontal cortex (parvalbumin mRNA): 0.0536±0.0023 relative optical density (ROD); parvalbumin mRNA, ventral reticular nucleus of the thalamus (parvalbumin mRNA): 0.5032±0.0194 ROD; expression of CIRL1 (RT-PCR) (CIRL1 mRNA): reduced

Reference: patent US20070074295A1 (priority 2000, published 2007)
